Experimental findings from patent US8865706B2, “Heteroaryl-substituted hexahydropyrano[3,4-d][1,3]thiazin-2-amine compounds” (Pfizer Inc., priority 2013, dated 2014) are described below.

For one assay, the target named is BACE1 enzyme (Homo sapiens (Human), UniProt P56817). The experiment in a line: BACE1 Cell-Free Assay (fluorescence polarization, cleavage of synthetic APP substrate). As to conditions: average of 2 determinations; values marked b: geometric mean of 3-9 determinations. It is filed as biochemical. An excerpt: This assay measures the inhibition of the beta-secretase enzyme as it cleaves a non-native peptide.
A synthetic APP substrate that can be cleaved by beta-secretase having N-terminal biotin and made fluorescent by the covalent attachment of Oregon Green at the Cys residue is used to assay beta-secretase activity in the presence or absence of the inhibitory compounds. […] The BACE1 enzyme is affinity purified material from conditioned media of CHO-K1 cells that have been transfected with a soluble BACE construct (BACE1deltaTM96His). Compounds are incubated in a ½ log dose response curve from a top concentration of 100 μM with BACE1 enzyme and the biotinylated fluorescent peptide in 384-well black plates (Thermo Scientific #4318). BACE1 is at a final concentration of 0.1 nM with a final concentration of peptide substrate of 150 nM in a reaction volume of 30 μL assay buffer [100 mM sodium acetate, pH 4.5 (brought to pH with acetic acid), and 0.001% Tween-20]. Plates are covered and incubated for 3 hours at 37° C. The reaction is stopped with the addition of 30 μL of 1.5 μM Streptavidin (Pierce, #21125). After a 10 minute incubation at room temperature, plates are read on a PerkinElmer EnVision for fluorescence polarization (Ex485 nm/Em530 nm). The activity of the beta-secretase enzyme is detected by changes in the fluorescence polarization that occur when the substrate is cleaved by the enzyme.
Background: In fluorescence polarisation assays a small probe gives low polarisation when free and higher when bound to something large.

Assay [1] deals with sAPPβ levels in H4 human neuroglioma cells over-expressing the wild-type human APP695. The assay is described as follows: Whole Cell Assay (In Vitro sAPPb Assay). Type of assay: cell-based. To be noted: 18 hours treatment, average of 2 determinations, values marked b: geometric mean of 3-9 determinations. Here is the method: Whole Cell Assay (In Vitro sAPPb Assay):
H4 human neuroglioma cells over-expressing the wild-type human APP695 are treated for 18 hours with compound in a final concentration 1% DMSO. sAPPβ levels are measured using TMB-ELISA with capture APP N-terminal antibody (Affinity BioReagents, OMA1-03132), wild-type sAPPβ specific reporter p192 (Elan), and tertiary anti rabbit-HRP (GE Healthcare).

BACE1 enzyme, sequence (P56817 46-457): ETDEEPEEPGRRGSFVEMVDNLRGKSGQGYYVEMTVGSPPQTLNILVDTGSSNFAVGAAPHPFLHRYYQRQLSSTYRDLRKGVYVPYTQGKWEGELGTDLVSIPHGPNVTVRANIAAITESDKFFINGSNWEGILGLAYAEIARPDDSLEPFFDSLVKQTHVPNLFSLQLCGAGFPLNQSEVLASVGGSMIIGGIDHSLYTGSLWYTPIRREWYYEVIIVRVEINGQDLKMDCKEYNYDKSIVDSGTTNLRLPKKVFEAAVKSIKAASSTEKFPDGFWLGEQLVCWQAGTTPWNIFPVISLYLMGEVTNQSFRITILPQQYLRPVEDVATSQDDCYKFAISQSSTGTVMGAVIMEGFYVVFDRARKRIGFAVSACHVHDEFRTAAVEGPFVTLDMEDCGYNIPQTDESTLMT

On to `Cc1cc([C@H]2C[C@H]3[C@@H](C)SC(N)=N[C@@]3(c3ccc(F)cc3F)CO2)on1` [Example 9, (4R,4aR,6R,8aS)-8a-(2,4-difluorophenyl)-4-methyl-6-(3-methyl-1,2-oxazol-5-yl)-4,4a,5,6,8,8a-hexahydropyrano[3,4-d][1,3]thiazin-2-amine], for which the IC50 was found to be 75.9 nM at BACE1 enzyme and 5.28 nM in assay [1] (Homo sapiens).

For `Cn1cc(F)c([C@H]2C[C@H]3CSC(N)=N[C@@]3(c3ccc(F)cc3F)CO2)n1` [Example 8, (4aR,6R,8aS)-8a-(2,4-difluorophenyl)-6-(4-fluoro-1-methyl-1H-pyrazol-3-yl)-4,4a,5,6,8,8a-hexahydropyrano[3,4-d][1,3]thiazin-2-amine], the results for the IC50 (at BACE1 enzyme; in assay [1] (Homo sapiens)) were 162 nM and 26.4 nM, respectively.

On to `N#Cc1coc([C@H]2C[C@H]3CSC(N)=N[C@@]3(c3ccc(F)cc3F)CO2)n1` [Example 19, 2-[(4aR,6R,8aS)-2-Amino-8a-(2,4-difluorophenyl)-4,4a,5,6,8,8a-hexahydropyrano[3,4-d][1,3]thiazin-6-yl]-1,3-oxazole-4-carbonitrile], for which the IC50 on BACE1 enzyme was 555 nM; in assay [1] (Homo sapiens), 73.2 nM.

For `COc1cc([C@H]2C[C@H]3CSC(N)=N[C@@]3(c3ccc(F)cc3F)CO2)ccn1` [Example 25, (4aR,6R,8aS)-8a-(2,4-Difluorophenyl)-6-(2-methoxypyridin-4-yl)-4,4a,5,6,8,8a-hexahydropyrano[3,4-d][1,3]thiazin-2-amine], the half-maximal inhibitory concentration (IC50) against BACE1 enzyme was determined as 384 nM; in assay [1] (Homo sapiens), 40.5 nM.

For `NC1=N[C@@]2(c3ccc(F)cc3F)CO[C@@H](c3nc4ccncc4o3)C[C@H]2CS1` [Example 23, (4aR,6R,8aS)-8a-(2,4-Difluorophenyl)-6-([1,3]oxazolo[5,4-c]pyridin-2-yl)-4,4a,5,6,8,8a-hexahydropyrano[3,4-d][1,3]thiazin-2-amine], the figures for the IC50 (against BACE1 enzyme; in assay [1] (Homo sapiens)) were 5020 nM and 40.8 nM, respectively.

In the case of `NC1=N[C@@]2(c3ccc(F)cc3F)CO[C@@H](c3nc4cnccc4o3)C[C@H]2CS1` [Example 10, (4aR,6R,8aS)-8a-(2,4-difluorophenyl)-6-([1,3]oxazolo[4,5-c]pyridin-2-yl)-4,4a,5,6,8,8a-hexahydropyrano[3,4-d][1,3]thiazin-2-amine], the IC50 is 240 nM against BACE1 enzyme and 21.2 nM in assay [1] (Homo sapiens).

Consider “(4aR,6R,8aS)-8a-(2,4-Difluorophenyl)-6-[1-(^2H3)methyl-1H-pyrazol-4-yl]-4,4a,5,6,8,8a-hexahydropyrano[3,4-d][1,3]thiazin-2-amine [Example 15]”, for which, in assay [1], the IC50 was determined as 4.37 nM.

`NC1=N[C@@]2(c3ccc(F)cc3F)CO[C@@H](c3cnn(CC(F)(F)F)c3)C[C@H]2CS1` [Example 5, (4aR,6R,8aS)-8a-(2,4-Difluorophenyl)-6-[1-(2,2,2-trifluoroethyl)-1H-pyrazol-4-yl]-4,4a,5,6,8,8a-hexahydropyrano[3,4-d][1,3]thiazin-2-amine]: the 50% inhibitory concentration (IC50) on BACE1 enzyme was determined as 72.8 nM; in assay [1] (Homo sapiens) it was 13.3 nM.

As to `NC1=N[C@@]2(c3ccc(F)cc3F)CO[C@@H](c3cncnc3)C[C@H]2CS1` [Example 24, (4aR,6R,8aS)-8a-(2,4-Difluorophenyl)-6-(pyrimidin-5-yl)-4,4a,5,6,8,8a-hexahydropyrano[3,4-d][1,3]thiazin-2-amine], the IC50 against BACE1 enzyme was 1550 nM; in assay [1] (Homo sapiens), 141 nM.

With `NC1=N[C@@]2(c3ccc(F)cc3F)CO[C@@H](c3ccc(F)cn3)C[C@H]2CS1` [Example 2, (4aR,6R,8aS)-8a-(2,4-Difluorophenyl)-6-(5-fluoropyridin-2-yl)-4,4a,5,6,8,8a-hexahydropyrano[3,4-d][1,3]thiazin-2-amine], the IC50 was 233 nM against BACE1 enzyme and 18.2 nM in assay [1] (Homo sapiens).

`Cc1cc([C@H]2C[C@H]3[C@@H](CF)SC(N)=N[C@@]3(c3ccc(F)cc3F)CO2)on1` [Example 13, (4S,4aR,6R,8aS)-8a-(2,4-Difluorophenyl)-4-(fluoromethyl)-6-(3-methyl-1,2-oxazol-5-yl)-4,4a,5,6,8,8a-hexahydropyrano[3,4-d][1,3]thiazin-2-amine]: the figures for the 50% inhibitory concentration (IC50) (on BACE1 enzyme; in assay [1] (Homo sapiens)) were 54.8 nM and 13.1 nM, respectively.

For `Cc1cnc([C@H]2C[C@H]3CSC(N)=N[C@@]3(c3ccc(F)cc3F)CO2)cn1` [Example 20, (4aR,6R,8aS)-8a-(2,4-Difluorophenyl)-6-(5-methylpyrazin-2-yl)-4,4a,5,6,8,8a-hexahydropyrano[3,4-d][1,3]thiazin-2-amine], the IC50 amounted to 389 nM against BACE1 enzyme and 20.2 nM in assay [1] (Homo sapiens).

As for `NC1=N[C@@]2(c3ccc(F)cc3F)CO[C@@H](c3nc(C(F)F)co3)C[C@H]2CS1` [Example 14, (4aR,6R,8aS)-6-[4-(Difluoromethyl)-1,3-oxazol-2-yl]-8a-(2,4-difluorophenyl)-4,4a,5,6,8,8a-hexahydropyrano[3,4-d][1,3]thiazin-2-amine], the values for the IC50 (at BACE1 enzyme; in assay [1] (Homo sapiens)) were 231 nM and 20.8 nM, respectively.

In the case of `Cc1cc([C@H]2C[C@H]3CSC(N)=N[C@@]3(c3ccc(F)cc3F)CO2)ccn1` [Example 27, (4aR,6R,8aS)-8a-(2,4-Difluorophenyl)-6-(2-methylpyridin-4-yl)-4,4a,5,6,8,8a-hexahydropyrano[3,4-d][1,3]thiazin-2-amine], the IC50 against BACE1 enzyme stood at 221 nM; in assay [1] (Homo sapiens) it was 4.73 nM.

`NC1=N[C@@]2(c3ccc(F)cc3F)CO[C@@H](c3cn4cccnc4n3)C[C@H]2CS1` [Example 4, (4aR,6R,8aS)-8a-(2,4-Difluorophenyl)-6-(imidazo[1,2-a]pyrimidin-2-yl)-4,4a,5,6,8,8a-hexahydropyrano[3,4-d][1,3]thiazin-2-amine]: the IC50 is 1840 nM against BACE1 enzyme and 66.2 nM in assay [1] (Homo sapiens).

Take `COc1cnc([C@H]2C[C@H]3CSC(N)=N[C@@]3(c3ccc(F)cc3F)CO2)nc1` [Example 11, (4aR,6R,8aS)-8a-(2,4-Difluorophenyl)-6-(5-methoxypyrimidin-2-yl)-4,4a,5,6,8,8a-hexahydropyrano[3,4-d][1,3]thiazin-2-amine]: the values for the IC50 (on BACE1 enzyme; in assay [1] (Homo sapiens)) were 343 nM and 29.1 nM, respectively.

Consider `Cc1cnc([C@@H]2C[C@@H]3CSC(N)=N[C@]3(c3ccc(F)cc3F)CO2)cn1` [Example C89, (4aS,6S,8aR)-8a-(2,4-difluorophenyl)-6-(5-methylpyrazin-2-yl)-4,4a,5,6,8,8a-hexahydropyrano[3,4-d][1,3]thiazin-2-amine], for which the IC50 came to 36200 nM against BACE1 enzyme and 1360 nM in assay [1] (Homo sapiens).

On to `Cc1nc([C@H]2C[C@H]3CSC(N)=N[C@@]3(c3ccc(F)cc3F)CO2)no1` [Example 6, (4aR,6R,8aS)-8a-(2,4-Difluorophenyl)-6-(5-methyl-1,2,4-oxadiazol-3-yl)-4,4a,5,6,8,8a-hexahydropyrano[3,4-d][1,3]thiazin-2-amine], for which the 50% inhibitory concentration (IC50) came to 341 nM at BACE1 enzyme and 41.5 nM in assay [1] (Homo sapiens).

As to `Cn1cc([C@H]2C[C@H]3CSC(N)=N[C@@]3(c3ccc(F)cc3F)CO2)ccc1=O` [Example 3, 5-[(4aR,6R,8aS)-2-Amino-8a-(2,4-difluorophenyl)-4,4a,5,6,8,8a-hexahydropyrano[3,4-d][1,3]thiazin-6-yl]-1-methylpyridin-2(1H)-one], the figures for the IC50 (against BACE1 enzyme; in assay [1] (Homo sapiens)) were 119 nM and 7.43 nM, respectively.

Turning to `Cn1cc([C@H]2C[C@H]3CSC(N)=N[C@@]3(c3ccc(F)cc3F)CO2)nn1` [Example 18, (4aR,6R,8aS)-8a-(2,4-Difluorophenyl)-6-(1-methyl-1H-1,2,3-triazol-4-yl)-4,4a,5,6,8,8a-hexahydropyrano[3,4-d][1,3]thiazin-2-amine], the IC50 on BACE1 enzyme stood at 877 nM; in assay [1] (Homo sapiens), 25.2 nM.

As for `Cn1ncc([C@H]2C[C@H]3CSC(N)=N[C@@]3(c3ccc(F)cc3F)CO2)n1` [Example 12, (4aR,6R,8aS)-8a-(2,4-Difluorophenyl)-6-(2-methyl-2H-1,2,3-triazol-4-yl)-4,4a,5,6,8,8a-hexahydropyrano[3,4-d][1,3]thiazin-2-amine], the IC50 against BACE1 enzyme was 466 nM; in assay [1] (Homo sapiens), 41.3 nM.

With `Cn1cc([C@H]2C[C@H]3[C@@H](CF)SC(N)=N[C@@]3(c3ccc(F)cc3F)CO2)cn1` [Example 22, (4S,4aR,6R,8aS)-8a-(2,4-Difluorophenyl)-4-(fluoromethyl)-6-(1-methyl-1H-pyrazol-4-yl)-4,4a,5,6,8,8a-hexahydropyrano[3,4-d][1,3]thiazin-2-amine], the IC50 in assay [1] (Homo sapiens) was determined as 6.28 nM.

Compound `Cc1ccc([C@H]2C[C@H]3CSC(N)=N[C@@]3(c3ccc(F)cc3F)CO2)cn1` (relative stereo) [Example 7, rel-(4aR,6R,8aS)-8a-(2,4-Difluorophenyl)-6-(6-methylpyridin-3-yl)-4,4a,5,6,8,8a-hexahydropyrano[3,4-d][1,3]thiazin-2-amine] had an IC50 in assay [1] (Homo sapiens) of 6.7 nM.

As to `NC1=N[C@@]2(c3ccc(F)cc3F)CO[C@@H](c3cncc(F)c3)C[C@H]2CS1` [Example 29, (4aR,6R,8aS)-8a-(2,4-difluorophenyl)-6-(5-fluoropyridin-3-yl)-4,4a,5,6,8,8a-hexahydropyrano[3,4-d][1,3]thiazin-2-amine], in assay [1] (Homo sapiens), the IC50 stood at 2.7 nM.

What is called IC50 is the concentration that gives 50% inhibition. High values mean weaker potency, low ones greater potency.
